What all share (type): cell-based, human
One assay has as its system Aβ42. Kind of assay: Aβ42 in FAD1 iPS cell-derived nerve cells (primary/secondary screening, dose dependency). Particulars: secondary screening, FAD1 iPS cell-derived nerve cells, numerical value (Aβ change rate). From the text:
(§1) To perform induction from iPS cells to the cerebral cortex nerve early and with high reproducibility, iPS cells introduced with human Neurogenin 2 gene (NGN2) linked to doxycycline-inducible promoter by using PiggyBac were used (FIG. 1a, FIG. 1b, FIG. 4a and FIG. 4b). IPS cells prepared from 4 patients with familial Alzheimer's disease (FAD), 2 patients with sporadic Alzheimer's disease (SAD) and 4 healthy individuals (HC) were used. The iPS cells were established by the method described in Okita K et al., Nature.
(§2) Structural formulas (those in the form of salt or halide are also described as free form) and the general names of the candidate compounds are shown in Table 1.
(§3) To further study reproducibility of the candidate drugs obtained by the primary screening, secondary screening was conducted. In addition to Aβ40, Aβ42, Aβ42/40 ratio, Aβ38, Aβ43, sAPPα, sAPPβ were also studied and each numerical value was obtained.

A further assay relates to Aβ42/40 ratio. Kind of assay: Aβ42/40 ratio in FAD1 iPS cell-derived nerve cells (primary/secondary screening, dose dependency). Particulars: secondary screening.
Text: as §1, §2, §3

Another assay concerns Aβ38. Kind of assay: Aβ38 in FAD1 iPS cell-derived nerve cells (secondary screening). On the set-up: scale not given here. As for the experimental part:
as §3

The test system of a further assay is Aβ43. Kind of assay: Aβ43 in FAD1 iPS cell-derived nerve cells (secondary screening). On the set-up: scale not given here. The protocol:
as §3

For another assay, the system named is sAPPα. The assay is described as follows: sAPPα in FAD1 iPS cell-derived nerve cells (secondary screening). The settings on record: secondary screening, FAD1 iPS cell-derived nerve cells. On the set-up: scale not given here. As for the experimental part:
as §3

The next assay deals with sAPPβ. The assay is described as follows: sAPPβ in FAD1 iPS cell-derived nerve cells (secondary screening). Also noted: sAPPβ: scale not given here. The settings on record: secondary screening, FAD1 iPS cell-derived nerve cells. The protocol: as §3

Regarding `Cc1cc2c(cc1S(N)(=O)=O)S(=O)(=O)CCC2` [compound 119], in the assay with Aβ42, the Aβ42 is on record as 0.74. For the same compound, in the assay with Aβ42/40 ratio, the “Ratio Aβ42/40” value is on record as 0.78. The Aβ38 in the assay on Aβ38 came out at 1.14. The same compound gave an Aβ43 in the assay on Aβ43 of 1.16. Besides, the sAPPα in the assay with sAPPα is reported as 1.07. Also, the sAPPβ in the assay on sAPPβ came out at 0.87.
On to `O=c1c2ccccc2[se]n1-c1ccccc1` [compound 45, EBSELEN], for which the Aβ42 with Aβ42 came out at 1. Moreover, the “Ratio Aβ42/40” value with Aβ42/40 ratio turned out to be 1.04. In the assay with Aβ38, this compound came in with an Aβ38 of 1.2. In addition, the Aβ43 in the assay on Aβ43 came out at 1.16. In the assay on sAPPα, this compound displayed a sAPPα of 1.17. This compound also had a sAPPβ with sAPPβ of 1.35.
`CN1CCN(C2=Nc3ccccc3Oc3ccc(Cl)cc32)CC1` [compound 25, LOXAPINE] gave an Aβ42 with Aβ42 of 0.94. Also, the “Ratio Aβ42/40” value with Aβ42/40 ratio came to 0.98. For the same compound, the Aβ38 in the assay on Aβ38 amounted to 1.11. The compound further returned an Aβ43 in the assay on Aβ43 of 1.14. In the assay on sAPPα, the sAPPα was determined as 1.15. This compound also had a sAPPβ in the assay with sAPPβ of 1.11.
`CCCCOc1ccc(C(=O)CCN2CCCCC2)cc1` [compound 55, DYCLONINE]: the Aβ42 in the assay with Aβ42 was 0.94. For the same compound, the “Ratio Aβ42/40” value in the assay with Aβ42/40 ratio was 0.99. In the assay on Aβ38, the Aβ38 stood at 1.07. For the same compound, the Aβ43 in the assay with Aβ43 was determined as 0.9. In addition, the sAPPα in the assay with sAPPα was determined as 0.83. The compound further gave a sAPPβ in the assay with sAPPβ of 0.76.
`O=C(O)c1cccnc1Nc1cccc(C(F)(F)F)c1` [compound 37, NIFLUMIC ACID]: in the assay with Aβ42, the Aβ42 is reported as 0.77. Further, in the assay with Aβ42/40 ratio, the “Ratio Aβ42/40” value is 0.86. The compound further showed an Aβ38 in the assay on Aβ38 of 0.97. This compound also had an Aβ43 in the assay with Aβ43 of 0.85. The compound also displayed a sAPPα in the assay with sAPPα of 0.8. This compound had a sAPPβ with sAPPβ of 0.92.
With `Cc1cccc(O)c1` [compound 89, CRESOL], the Aβ42 with Aβ42 was 0.81. Moreover, the “Ratio Aβ42/40” value with Aβ42/40 ratio turned out to be 0.91. Moreover, in the assay with Aβ38, the Aβ38 was 0.93. For the same compound, the Aβ43 with Aβ43 is recorded as 0.89. In the assay with sAPPα, the sAPPα is reported as 0.71. The sAPPβ with sAPPβ is given as 0.58.
Compound `Nc1ccc(C(=O)O)c(O)c1` [compound 50, AMINOSALICYLATE] came in with an Aβ42 in the assay with Aβ42 of 1.03. For the same compound, the “Ratio Aβ42/40” value in the assay with Aβ42/40 ratio came out at 1.08. The Aβ38 in the assay with Aβ38 is 1.2. Moreover, in the assay on Aβ43, the Aβ43 was determined as 1.22. The sAPPα in the assay with sAPPα turned out to be 1. For the same compound, the sAPPβ with sAPPβ stood at 1.31.
The compound `CCN(CC)CCNC(C(=O)OCCC(C)C)c1ccccc1` (stereo not drawn) [compound 33, CAMYLOFINE] had an Aβ42 with Aβ42 of 0.9. Further, in the assay with Aβ42/40 ratio, the “Ratio Aβ42/40” value is listed as 0.85. Also, the Aβ38 with Aβ38 is 1.12. The same compound returned an Aβ43 in the assay on Aβ43 of 0.88. Moreover, the sAPPα in the assay on sAPPα was 0.89. In addition, the sAPPβ in the assay with sAPPβ was found to be 0.71.
On to `Nc1ccn([C@@H]2O[C@H](CO)[C@@H](O)[C@@H]2O)c(=O)n1` [compound 115, CYTARABINE], for which the Aβ42 with Aβ42 is 0.8. Besides, the “Ratio Aβ42/40” value in the assay on Aβ42/40 ratio was 0.9. This compound also had an Aβ38 in the assay on Aβ38 of 0.99. In the assay on Aβ43, the Aβ43 is given as 0.81. The compound also returned a sAPPα in the assay with sAPPα of 0.74. Besides, in the assay on sAPPβ, the sAPPβ amounted to 0.69.
On to `CNCC[C@@H](Oc1ccccc1C)c1ccccc1` [compound 4, ATOMOXETINE], for which the Aβ42 in the assay on Aβ42 is recorded as 0.95. The “Ratio Aβ42/40” value with Aβ42/40 ratio is reported as 0.94. In the assay with Aβ38, this compound came in with an Aβ38 of 1.1. In the assay with Aβ43, the Aβ43 is on record as 0.89. The sAPPα with sAPPα is reported as 0.78. This compound registered a sAPPβ in the assay on sAPPβ of 0.81.
With `c1cnc(N2CCN(Cc3ccc4c(c3)OCO4)CC2)nc1` [compound 36, PIRIBEDIL], in the assay on Aβ42, the Aβ42 was 0.87. The “Ratio Aβ42/40” value with Aβ42/40 ratio was 0.83. This compound also had an Aβ38 in the assay on Aβ38 of 1.11. The compound further came in with an Aβ43 in the assay on Aβ43 of 1.09. In the assay with sAPPα, this compound gave a sAPPα of 0.92. The compound also displayed a sAPPβ in the assay on sAPPβ of 0.82.
`Oc1ccc(OCc2ccccc2)cc1` [compound 23, MONOBENZONE] yielded an Aβ42 with Aβ42 of 0.82. Also, the “Ratio Aβ42/40” value in the assay on Aβ42/40 ratio turned out to be 0.91. Moreover, in the assay with Aβ38, the Aβ38 worked out at 1.05. For the same compound, the Aβ43 with Aβ43 came to 0.89. In the assay on sAPPα, the sAPPα is on record as 0.74. Further, in the assay on sAPPβ, the sAPPβ turned out to be 0.56.

The values are drawn from patent US11026942B2, “Agent for preventing and/or treating Alzheimer's disease” (KYOTO UNIVERSITY, priority 2015, dated 2021).
